Test results: patent US9457016B2, “Methods for treating polycystic kidney disease” (New York University, priority 2013, dated 2016)

Legend:
ADPKD cells [1] = test: Cyst formation of ADPKD cells plated in collagen, forskolin stimulated; assay type: cell-based, human
Protocol: FIG. 1. […] Images are at 10×. BF=bright field.
FIG. 2. Quantification of cyst size and cyst number in ADPKD cells incubated with or without BPTES. Total number of cysts in FIG. 1 was counted and stratified by cyst size. Asterisks indicate statistically significant findings.
FIG. 10. siRNA to Gls1 inhibits cyst formation of ADPKD cells. ADPKD cells were transfected with a control or siRNA to Gls1 and cyst formation was assessed. Number of cysts in control (blue), siRNA transfected cells (green), or siRNA transfected cells cultured with dimethyl α-ketoglutarate (red).
FIG. 10 depicts results from experiments using siRNA to Gls1 to determine the effects of same on cyst formation of ADPKD cells. […] The following are exemplary siRNA sequences used for inhibition of Gls1 […] (SEQ ID NO: 1); SASI_Hs01_00071573-[…][dT][dT] (SEQ ID NO: 2); 2260 NM_014905-[…] (SEQ ID NO: 3); SASI_Hs01_00071574-[…][dT][dT] (SEQ ID NO: 4); 1081 NM_014905-[…] (SEQ ID NO: 5).
The present inventors have made the surprising discovery that inhibiting glutaminase 1 (gls1) blocks cyst formation and proliferation by ADPKD cells. […] ADPKD cells were plated in collagen and stimulated with the cyclic 3′-5′-adenosine monophosphate (cAMP) agonist forskolin. […] The results are depicted graphically in FIG. 2, wherein the data were stratified according to both the number of observable cysts and their size.

[2] = system: PKD1^flox/flox; Tamoxifen-Cre mice; assay type: in vivo; conditions: BPTES 12.5 mg/kg IP BID, postnatal day 15-32, N=4, vs vehicle control
Protocol: FIG. 12A-C. […] Mice were sacrificed on day 32 and analyzed. (A) Scan of sagittal section of littermates treated with BPTES or vehicle control; (B) Kidney wt/body wt; (C) cystic index.
Cre recombinase was induced on postnatal day 10 by administering tamoxifen (10 mg/40 g) intraperitoneally (IP) on two consecutive days. […] Only same sexed mice from same litters were compared.
Early Models. PKD1^flox/flox; Tamoxifen-Cre Mice: The present inventors obtained the tamoxifen-Cre mouse model from G. Germino. For early onset disease, Cre recombinase is induced at day 10 by administering tamoxifen (10 mg/40 g) intraperitoneally (IP) on 2 consecutive days as described in FIG. 12 above and in Piontek et al. (2007, Nature medicine, 13: 1490-1495; the entire content of which is incorporated herein by reference).

ADPKD cells [3] = test: Intracellular ATP levels; assay type: cell-based, human; conditions: 24 hours
From the text: α-ketoglutarate also feeds directly into the tricarboxylic acid (TCA) cycle and therefore metabolism of α-ketoglutarate is an important source of ATP from glutamine.

[4] = system: Pkd1^fl/fl; Pkhd1-Cre mice; test: Pkd1fl/fl; Pkhd1-Cre mouse model of ADPKD; assay type: in vivo
From the text: As described in Karihaloo et al. (2011, J Am Soc Nephrol 22: 1809-1814), Pkd1^fl/fl; Pkhd1-Cre mice may be generated by crossing Pkd1fl/fl mice with Pkhd1-Cre mice13 so as to achieve kidney-specific deletion of the Pkd1 allele. See also Shibazaki et al. (2008, Hum Mol Genet 17, 1505-1516) and Patel et al. (2008, Hum Mol Genet 17, 1578-1590). The entire content of each of Karihaloo et al., Shibazaki et al., and Patel et al. is incorporated herein by reference.
Pkhd-Cre Mice: This is a very robust and reproducible early model of PKD. The Somlo lab has shown that Pkhd-cre expresses and deletes predominantly in collecting tubules Ma et al. (2013, Nature genetics, 45: 1004-1012; the entire content of which is incorporated herein by reference).

mTor [5] = test: mTOR activation by anti-phospho-S6 immunoblot after amino acid refeeding; assay type: cell-based, human; conditions: ADPKD cells refed glutamine and lysine 30 or 60 minutes after 3 hours amino acid deprivation
Protocol: FIG. 14. […] Cells were then lysed and mTOR activation was assessed by immunoblotting with anti-phospho-S6 antibodies (pS6). To control for loading, the same samples were immunoblotted with antibodies to actin (Actin).

mTor [6] = test: Recruitment of mTor to lysosome, immunofluorescence with LAMP; assay type: cell-based, human; conditions: ADPKD cells refed with amino acids (QL)
From the text: (A) Schematic depicting mTor activation, which is mediated by the recruitment of mTor to the lysosome. (B) ADPKD cells were stimulated as in FIG. 14 and then subjected to immunofluorescence analysis with antibodies to LAMP (lysosomal associated membrane protein) which stains lysosomes and mTor. Co-localization is shown by a yellow signal following the merging of the green mTor signal and the red LAMP signal. Refeeding with amino acids (QL) led to colocalization or recruitment of mTor to the lysosome as manifested by yellow staining in the merged image (compare −QL with +QL), which was abolished by treatment with BPTES.

ADPKD cells [7] = test: Seahorse analysis of ATP production and mitochondrial oxygen consumption; assay type: cell-based, human
Protocol: FIG. 13A-B. Seahorse analysis of ADPKD cells. ADPKD cells that were unstimulated or stimulated with forskolin in the presence or absence of BPTES and mitochondrial oxygen consumption was determined by seahorse analysis. (A) Schematic of the method and analysis. Oligomycin inhibits ATP synthase. FCCP is a mitochondrial uncoupler and leads to maximal OCR and rotenone interferes with electron transport. (B) Inhibition of ATP generation was also found by Seahorse analysis. ADPKD cells were unstimulated in the absence (C) or presence of BAPTES (B) or stimulated with forskolin in the absence (F) or presence of BPTES (FB).
The decreased generation of α-ketoglutarate, which feeds directly into tricarboxylic acid (TCA) would be predicted to lead to decreased TCA intermediates required for mitochondrial respiration and ATP generation. Seahorse analysis (Seahorse Biosciences) was performed on ADPKD cells that were either unstimulated or stimulated with forskolin in the presence or absence of BPTES.

ADPKD cells [8] = test: 8-bromo-cAMP stimulated proliferation, MTT assay; assay type: cell-based, human; conditions: 8-bromo-cAMP + BPTES
ADPKD cells [9] = test: Forskolin-induced proliferation, MTT assay; assay type: cell-based, human; conditions: co-culture of ADPKD cells with α-ketoglutarate
Protocol: FIG. 3. […] Proliferation was then quantitated 24 hours later using the MTT assay kit (Promega).
Elevated intracellular concentration of cAMP is characteristic of ADPKD cells in vivo and mediates activation of signaling pathways that lead to proliferation of ADPKD cells. Gls1 is also critical for proliferation of ADPKD cells.

GLS1 = target: T1, GLS1 (Homo sapiens, UniProt O94925); conditions: dimeric vs tetrameric GLS1; cited from earlier work
T1 sequence (O94925 55-669): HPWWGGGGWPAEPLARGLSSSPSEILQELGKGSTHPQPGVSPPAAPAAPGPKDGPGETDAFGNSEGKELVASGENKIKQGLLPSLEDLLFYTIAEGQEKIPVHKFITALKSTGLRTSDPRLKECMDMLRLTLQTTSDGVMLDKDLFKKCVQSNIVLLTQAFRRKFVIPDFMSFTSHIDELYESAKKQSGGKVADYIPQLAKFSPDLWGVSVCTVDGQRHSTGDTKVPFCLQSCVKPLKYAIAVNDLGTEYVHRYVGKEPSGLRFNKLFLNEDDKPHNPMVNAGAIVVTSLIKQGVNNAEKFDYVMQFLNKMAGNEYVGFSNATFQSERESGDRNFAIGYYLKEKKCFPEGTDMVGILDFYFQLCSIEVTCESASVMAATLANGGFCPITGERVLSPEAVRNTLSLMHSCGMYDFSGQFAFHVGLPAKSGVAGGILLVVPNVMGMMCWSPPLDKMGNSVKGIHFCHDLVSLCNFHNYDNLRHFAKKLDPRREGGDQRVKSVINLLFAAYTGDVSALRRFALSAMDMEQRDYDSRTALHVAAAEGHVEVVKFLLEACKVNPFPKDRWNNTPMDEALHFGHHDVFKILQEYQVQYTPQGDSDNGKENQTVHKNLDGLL

[10] = cited from earlier work
[11] = ADPKD cells in collagen, forskolin, cultured 2 weeks with or without BPTES
[12] = BPTES 12.5 mg/kg IP QOD, postnatal day 10-24, vs vehicle control

O=C(Cc1ccccc1)Nc1nnc(CCSCCc2nnc(NC(=O)Cc3ccccc3)s2)s1 [BPTES]
number of cysts (ADPKD cells [1]; [11]): markedly reduces the number of cysts
size of cysts (ADPKD cells [1]; [11]): profoundly decreases the size of those cysts that are formed
cyst growth [2]: statistically significant inhibition of cyst growth
intracellular ATP levels (ADPKD cells [3]): significant decrease
cyst volume [4, 12]: significantly decreased
kidney size [4, 12]: significantly decreased
kidney function ([4]; following BPTES administration): some preservation/restoration of kidney function was observed
mTor activation (pS6) (mTor [5]): inhibits mTor activation
colocalization or recruitment of mTor to the lysosome (mTor [6]): abolished
basal and forskolin stimulated ATP production (ADPKD cells [7]): inhibited
basal and forskolin stimulated mitochondrial O2 consumption (ADPKD cells [7]): inhibited

COC(=O)CCC(=O)C(=O)OC [dimethyl α-ketoglutarate]
rescue of cyst formation in siRNA transfected cells (ADPKD cells [1]; dimethyl α-ketoglutarate added to the medium): statistically significant rescue of cyst formation
rescue of BPTES inhibition of proliferation (ADPKD cells [8]): rescued the inhibition of proliferation
reversal of BPTES inhibition of proliferation (ADPKD cells [9]): reversed the inhibition of proliferation by BPTES

CN(C)c1ccc(C2Nc3ccc4ccccc4c3C3=C2C(=O)CC(C)(C)C3)cc1Br (stereo not shown) [compound 968, 5-(3-bromo-4-(dimethylamino)phenyl)-2,2-dimethyl-2,3,5,6-tetrahydrobenzo[a]phenanthridin-4(1H)-one]
inhibition of GLS1 oligomeric forms (GLS1): only inhibits the nonactivated dimeric GLS1 and not the active tetramer
aqueous solubility [10]: poor aqueous solubility
